Measurements from patent US10213451B2, “Methods and compounds for modulating the secretion or expression of adhesion proteins or angiopoietins of cells” (PACIFIC ARROW LIMITED, priority 2004, dated 2019).
Values after ≈ are worked out from the molar mass of the structure shown.

The molecules below were run on ES2(ovarian) cells (assay: MTT assay ES2). Conditions: ES2 cells.
Type: cell-based, human
Experimental: MTT Assay. The procedure for MTT assay followed the method described by Carmichael et al. (1987) with modifications. The cells were seeded into a 96-well plate at concentration of 10,000/well for HTB-9, HeLa, H460, HCT116, T98G and OVCAR-3), 15,000/well for DU145, MCF-7, HepG2 and U2OS), and 40,000/well for K562 for 24 hours before drug-treatment. The cells were then exposed to the drugs for 48 hours (72 hours for HepG2 and U2OS, and 96 hours for MCF-7). After the drug-treatment, MTT (0.5 mg/mL) was added to cultures and incubated for an hour. The formazan (product of the reduction of tetrazolium by viable cells) formed and was dissolved with DMSO and the O.D. at 490 nm, and was measured by an ELISA reader. The MTT level of the cells before drug-treatment was also measured (T0). The % cell-growth (% G) is calculated as: % G=(TD−T0/TC−T0)×100(1), where TC or TD represents O.D. readings of control or drug-treated cells. When T0>TD, then the cytotoxicity (LC) expressed as % of the control is calculated as: % LC=(TD−T0/T0)×100(2).
Methods: ES2 cells were exposed to (i) Xanifolia-Y with concentrations of 40, 20, 10, 5, 2.5, and 1.25 ug/ml; or (ii) Paclitaxel with concentrations of […]; or (iii) Combined Xanifolia-Y and Paclitaxel with concentrations of each drug in same order (for example, 40 ug/ml Y plus 10 ng/ml T; 20 ug/ml Y plus 5 ng/ml T, etc. please see FIG. 28). Cells growth under these conditions was determined by the MTT assay.
Drug-treatment: cells cultures were replaced with fresh RPMI medium containing Xanifolia-Y (10 ug/ml final concentration) or DMSO (as control) at 0 hour. At 2, and 18 hour, aliquot of culture medium was taken out for Fibronectin determination (Western blot method). Cell viability at 18 hours was determined by MTT assay. Cultures were replaced with RPMI medium with MTT and incubated for an hour. The formation of formazan was dissolved in DMSO and OD at 570 nm was measured.

| SMILES | IC50 |
| --- | --- |
| C/C=C(/C)C(=O)O[C@H]1[C@H](OC(=O)C(C)C)[C@@]2(CO)C(CC1(C)C)C1=CCC3[C@@]4(C)CC[C@H](O)C(C)(C)C4CC[C@@]3(C)[C@]1(C)[C@@H](O)[C@H]2O (stereo partly shown) [ACH-Y0] | 20 µg/mL (≈ 30.4 µM) |
| CC=C(C)C(=O)OC1C(OC(=O)C(C)=CC)C2(CO)C(O)CC3(C)C(=CCC4C5(C)CCC(O)C(C)(CO)C5CCC43C)C2CC1(C)C (stereo not shown) [ACH-Y8] | 35 µg/mL (≈ 52.2 µM) |
| C/C=C(/C)C(=O)O[C@H]1[C@H](OC(=O)/C(C)=C\C)[C@@]2(CO)C(CC1(C)C)C1=CCC3[C@@]4(C)CC[C@H](O)C(C)(C)C4CC[C@@]3(C)[C@]1(C)C[C@H]2O (stereo partly shown) [ACH-Y10] | 20 µg/mL (≈ 30.5 µM) |
| C/C=C(/C)C(=O)O[C@H]1[C@H](OC(C)=O)C(C)(C)CC2C3=CCC4[C@@]5(C)CC[C@H](O)C(C)(C)C5CC[C@@]4(C)[C@]3(C)C[C@@H](O)[C@]21CO (stereo partly shown) [ACH-X] | 40 µg/mL (≈ 65.1 µM) |
| CC1(C)CC2C3=CCC4C5(C)CCC(OC6OC(C(=O)O)C(O)C(OC7OCC(O)C(O)C7O)C6OC6OC(CO)C(O)C(O)C6O)C(C)(C)C5CCC4(C)C3(C)CC(O)C2(CO)C(OC(=O)c2ccccc2)C1OC(=O)c1ccccc1 [Ba5, 3-O-[β-D-galactopyranosyl(1→2)]-β-D-xylopyranosyl (1→3)-β-D-glucuronopyranosyl-21-O-benzoyl, 22-O-benzoyl-3β, 15α, 21β, 22α, 28-pentahydroxyolean-12-ene] | 16 µg/mL (≈ 13.7 µM) |
| CC(C)C(=O)OC1C(OC(=O)c2ccccc2)C(C)(C)CC2C3=CCC4C5(C)CCC(OC6OC(C(=O)O)C(O)C(OC7OCC(O)C(O)C7O)C6OC6OC(CO)C(O)C(O)C6O)C(C)(C)C5CCC4(C)C3(C)CC(O)C21CO [Ba7, 3-O-[β-D-galactopyranosyl(1→2)]-β-D-xylopyranosyl (1→3)-β-D-glucuronopyranosyl-21-O-benzoyl, 22-O-isobutyryl-3β, 15α, 21β, 22α, 28-pentahydroxyolean-12-ene] | 11 µg/mL (≈ 9.69 µM) |
| CC1(C)CC2C3=CCC4C5(C)CCC(OC6OC(C(=O)O)C(O)C(OC7OCC(O)C(O)C7O)C6OC6OC(CO)C(O)C(O)C6O)C(C)(C)C5CCC4(C)C3(C)CC(O)C2(CO)C(O)C1OC1OCC(OC(=O)c2ccccc2)C(OC(=O)c2ccccc2)C1O [Ba9, 3-O-[β-D-galactopyranosyl(1→2)]-β-D-xylopyranosyl (1→3)-β-D-glucuronopyranosyl-21-O-[3,4-dibenzoyl-β-D-xylopyranosyl]-3β, 15α, 21β, 22α, 28-pentahydroxyolean-12-ene] | 12 µg/mL (≈ 9.22 µM) |
| CC1O[C@@H](OC2[C@H](OC3[C@H](O[C@H]4C(O[C@@H]5OC(CO)[C@H](O)[C@@H](O)C5O)[C@H](O[C@H]5CC[C@@]6(C)C(CC[C@]7(C)C6CC[C@]68O[C@H](O)[C@]9(C6CC(C)(C)[C@@H](OC(=O)c6ccccc6)[C@@H]9OC(=O)C=Cc6ccccc6)[C@H](O)[C@H](O)[C@]87C)[C@@]5(C)CO)OC(C(=O)O)[C@H]4O)OC(CO)[C@H](O)[C@H]3O)OC(C)[C@H](O)[C@@H]2O)C(O)[C@@H](O)[C@H]1O (stereo partly shown) [Mb8] | 20 µg/mL (≈ 12.8 µM) |
| CC=C(C)C(=O)OC1C(OC(=O)C=Cc2ccccc2)C23C(O)CC4(C)C5(C)CCC6C(C)(C)C(OC7OC(C(=O)O)C(O)C(OC8OC(CO)C(O)C(O)C8OC8OC(C)C(O)C(O)C8OC8OC(C)C(O)C(O)C8O)C7OC7OC(CO)C(O)C(O)C7O)CCC6(C)C5CCC4(OC2O)C3CC1(C)C (stereo not shown) [Mb1] | 8 µg/mL (≈ 5.29 µM) |
| C/C=C(/C)C(=O)O[C@H]1[C@H](OC(=O)c2ccccc2)[C@@]2(CO)C(CC1(C)C)C1=CCC3[C@@]4(C)CC[C@H](O)C(C)(C)C4CC[C@@]3(C)[C@]1(C)[C@@H](O)[C@H]2O (stereo partly shown) [ACH-Z4] | 40 µg/mL (≈ 57.7 µM) |
| CC=C(C)C(=O)OC1C(OC(=O)c2ccccc2)C(C)(C)CC2C13C(O)CC1(C)C4(C)CCC5C(C)(C)C(OC6OC(C(=O)O)C(O)C(OC7OC(CO)C(O)C(O)C7OC7OC(C)C(O)C(O)C7OC7OC(C)C(O)C(O)C7O)C6OC6OC(CO)C(O)C(O)C6O)CCC5(C)C4CCC21OC3O (stereo not shown) [Mb6] | 10 µg/mL (≈ 6.73 µM) |
| CC=C(C)C(=O)OC1C(OC(=O)C(C)=CC)C2(CO)C(CC1(C)C)C1=CCC3C4(C)CCC(O)C(C)(CO)C4CCC3(C)C1(C)C(O)C2O (stereo not shown) [ACH-Y2] | 35 µg/mL (≈ 51 µM) |
| CC1(C)CC2C3=CCC4C5(C)CCC(OC6OC(C(=O)O)C(O)C(OC7OCC(O)C(O)C7O)C6OC6OC(CO)C(O)C(O)C6O)C(C)(C)C5CCC4(C)C3(C)CC(O)C2(CO)C(O)C1OC(=O)c1ccccc1 [Ba8, 3-O-[β-D-galactopyranosyl(1→2)]-β-D-xylopyranosyl (1→3)-β-D-glucuronopyranosyl-21-O-benzoyl-3β, 15α, 21β, 22α, 28-pentahydroxyolean-12-ene] | 20 µg/mL (≈ 18.8 µM) |
| CC=C(C)C(=O)OC1C(OC(=O)c2ccccc2)C(C)(C)CC2C3=CCC4C5(C)CCC(OC6OC(C(=O)O)C(O)C(OC7OCC(O)C(O)C7O)C6OC6OC(CO)C(O)C(O)C6O)C(C)(C)C5CCC4(C)C3(C)CC(O)C21CO [Ba3, 3-O-[β-D-galactopyranosyl(1→2)]-β-D-xylopyranosyl (1→3)-β-D-glucuronopyranosyl-21-O-benzoyl, 22-O-angeloyl-3β, 15α, 21β, 22α, 28-pentahydroxyolean-12-ene] | 8 µg/mL (≈ 6.97 µM) |
| C/C=C(/C)C(=O)O[C@H]1[C@H](O)[C@@]2(COC(=O)C(C)CC)C(CC1(C)C)C1=CCC3[C@@]4(C)CC[C@H](O)C(C)(C)C4CC[C@@]3(C)[C@]1(C)[C@@H](O)[C@H]2O (stereo partly shown) [ACH-Y7] | 65 µg/mL (≈ 96.6 µM) |
| CC1OC(OC2C(OC3C(OC4C(O)C(C(=O)O)OC(OC5CCC6(C)C(CCC7(C)C6CCC68OC(O)C9(C(O)CC76C)C(OC(=O)C=Cc6ccccc6)C(OC(=O)c6ccccc6)C(C)(C)CC98)C5(C)C)C4OC4OC(CO)C(O)C(O)C4O)OC(CO)C(O)C3O)OC(C)C(O)C2O)C(O)C(O)C1O (stereo not shown) [Mb4] | 15 µg/mL (≈ 9.78 µM) |
| CC1OC(OC2C(OC3C(OC4C(O)C(C(=O)O)OC(OC5CCC6(C)C(CCC7(C)C6CCC68OC(O)C9(C(O)CC76C)C(OC(=O)C=Cc6ccccc6)C(OC(=O)c6ccccc6)C(C)(C)CC98)C5(C)C)C4OC4OC(CO)C(O)C(O)C4O)OC(CO)C(O)C3O)OC(C)C(O)C2O)C(O)C(O)C1O (stereo not shown) [Mb3] | 8 µg/mL (≈ 5.22 µM) |
| CC=C(C)C(=O)OC1C(OC(=O)c2ccccc2)C2(CO)C(CC1(C)C)C1=CCC3C4(C)CCC(OC5OC(C(=O)O)C(O)C(OC6OC(CO)C(O)C6O)C5OC5OC(CO)C(O)C(O)C5O)C(C)(C)C4CCC3(C)C1(C)C(O)C2O [Xanifolia Z4, 3-O-[β-D-galactopyranosyl(1→2)]-α-L-arabinofuranosyl(1→3)-β-D-glucuronopyranosyl-21-O-angeloyl, 22-O-benzoyl-3β, 15α, 16α, 21β, 22α, 28-hexahydroxyolean-12-ene] | 20 µg/mL (≈ 17.2 µM) |

Same assay, conditions: Homo sapiens, ES-2

| SMILES | IC50 |
| --- | --- |
| C/C=C(/C)C(=O)O[C@H]1[C@H](OC(=O)/C(C)=C/C)[C@@]2(CO)C(CC1(C)C)C1=CCC3[C@@]4(C)CC[C@H](O[C@@H]5OC(C(=O)O)[C@@H](O)C(O[C@@H]6OC[C@@H](O)C(O)C6O)C5O[C@@H]5OC(CO)[C@H](O)C(O)C5O)C(C)(C)C4CC[C@@]3(C)[C@]1(C)C[C@H]2O (stereo partly drawn) [Xanifolia Z12, 3-O-[β-D-galactopyranosyl(1→2)]-β-D-xylopyranosyl (1→3)-β-D-glucuronopyranosyl-21-O-angeloyl, 22-O-tigloyl-3β, 16α, 21β, 22α, 28-pentahydroxyolean-12-ene] | 16 µg/mL (≈ 14.2 µM) |
